# Test results: patent US20250066341A1 (CHIESI FARMACEUTICI S.P.A., priority 2021, published 2025)
# pIC50: −log10 of the molar value.
# Target: T1, human recombinant LPA1 expressed in CHO cells (Homo sapiens, UniProt Q92633)
# T1 construct: expressed in transfected cells; host or cells: CHO cells (CHO-hLPA1 cell line)
# Test: FLIPR calcium mobilization assay, LPA1 antagonism in CHO-hLPA1 cells
# Format: cell-based
# Details: inhibition of LPA EC80 Ca2+ response, 30 min pre-incubation, expressed as range of activity
# Experimental: The effectiveness of compounds of the present invention as LPA1 antagonist can be determined at the human recombinant LPA1 expressed in CHO cells, using a FLIPR assay in 384 well format.
# CHO-hLPA1 cell lines are cultured in a humidified incubator at 5% C02 in DMEM/F-12 (1:1) MIXTURE with 2 mM Glutamax, supplemented with 10% of Foetal Bovine Serum, 1 mM Sodium Pyruvate, 11 mM Hepes and 1× Penicillin/Streptomycin. […] Serial dilutions (1:3 or 1:4, 11 points CRC) of compounds are performed in 100% DMSO at 200× the final concentration. […] The final concentration of DMSO in the assay will be 0.5% in each well. Medium is removed by aspiration and cells are then incubated with 30 μl of a loading solution containing 5 μM of the cytoplasmic Ca2+ indicator Cal-520 AM in Assay Buffer containing 2.5 mM probenecid for 30 min at 37° C. incubator (cell loading). The loaded cell plates are transferred into the FLIPR instrument and calcium responses are monitored during the on-line addition protocols. For testing of compounds, after the cell loading, 10 μl/well of 4× antagonists' solution was added onto the cells. After 30 min pre-incubation (at 37° C.), 10 μl/well of 5× concentrated LPA EC80 was added and Ca2+ mobilization responses was followed during the on-line addition protocol. Intracellular peak fluorescence values subtracted by baseline fluorescence are exported and analysed to determine IC50 values, respectively. The calcium response is expressed as percentage of the maximal inhibition of the EC80 agonist response.
# The raw data (peak height expressed as relative fluorescence units) are normalized and transformed into “percent of inhibition”. Curve fitting and pIC50 (−LogIC50) estimations are carried out using a four-parameter logistic model using XLfit Software.
# T1 sequence (Q92633 whole entry): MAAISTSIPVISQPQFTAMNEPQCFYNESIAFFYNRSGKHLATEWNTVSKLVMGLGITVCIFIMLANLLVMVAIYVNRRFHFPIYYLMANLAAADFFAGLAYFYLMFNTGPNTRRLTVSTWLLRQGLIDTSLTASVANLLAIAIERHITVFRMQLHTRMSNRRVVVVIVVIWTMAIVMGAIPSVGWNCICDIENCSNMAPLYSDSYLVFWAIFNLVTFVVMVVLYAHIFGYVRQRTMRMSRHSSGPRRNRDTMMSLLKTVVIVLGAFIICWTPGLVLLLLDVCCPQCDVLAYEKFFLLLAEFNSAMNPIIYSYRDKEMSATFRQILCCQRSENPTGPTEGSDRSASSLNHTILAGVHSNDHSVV
row,pIC50,Structure (SMILES)
1,> 7.30,"Cc1noc(-c2ccc(OCC3CCCCC3C(=O)O)cc2)c1NC(=O)O[C@H](C)c1ccccc1Cl (stereo partly drawn) [Compound 77, 2-((4-(4-((((R)-1-(2-chlorophenyl)ethoxy)carbonyl)amino)-3-methylisoxazol-5-yl)phenoxy)methyl)cyclohexane-1-carboxylic acid]"
2,6.60 to 7.30,"Cc1nc(-c2onc(C)c2CNC(=O)OCc2ccccc2)ccc1NC(=O)[C@H]1CCCC[C@@H]1C(=O)O [Compound 32, (1S,2S)-2-((6-(4-((((benzyloxy)carbonyl)amino)methyl)-3-methylisoxazol-5-yl)-2-methylpyridin-3-yl)carbamoyl)cyclohexane-1-carboxylic acid]"
3,6.22 to 6.60,"CCCCNc1cncc(Nc2c(C)noc2-c2ccc(NC(=O)[C@H]3CCCC[C@@H]3C(=O)O)c(C)n2)n1 [Compound 5, (1S,2S)-2-((6-(4-((6-(butylamino)pyrazin-2-yl)amino)-3-methylisoxazol-5-yl)-2-methylpyridin-3-yl)carbamoyl)cyclohexane-1-carboxylic acid]"
4,> 7.30,"Cc1nc(-c2onc(C)c2NS(=O)(=O)CCc2ccc(Cl)cc2)ccc1NC(=O)[C@H]1CCCC[C@@H]1C(=O)O [Compound 28, (1S,2S)-2-((6-(4-((2-(4-chlorophenyl)ethyl)sulfonamido)-3-methylisoxazol-5-yl)-2-methylpyridin-3-yl)carbamoyl)cyclohexane-1-carboxylic acid]"
5,6.60 to 7.30,"Cc1nc(-c2onc(C)c2Nc2cncc(-c3ccncc3)n2)ccc1NC(=O)[C@H]1CCCC[C@@H]1C(=O)O [Compound 8, (1S,2S)-2-((2-methyl-6-(3-methyl-4-((6-(pyridin-4-yl)pyrazin-2-yl)amino)isoxazol-5-yl)pyridin-3-yl)carbamoyl)cyclohexane-1-carboxylic acid]"
6,> 7.30,"Cc1nc(-c2nnn(C)c2CNc2nccc(OC(C)C)n2)ccc1OC[C@H]1CCCC[C@@H]1C(=O)O [Compound 66, (1S,2S)-2-(((6-(5-(((4-isopropoxypyrimidin-2-yl)amino)methyl)-1-methyl-1H-1,2,3-triazol-4-yl)-2-methylpyridin-3-yl)oxy)methyl)cyclohexane-1-carboxylic acid]"
7,> 7.30,"Cc1nc(-c2onc(C)c2NS(=O)(=O)CCc2ccccc2Cl)ccc1NC(=O)[C@H]1CCCC[C@@H]1C(=O)O [Compound 22, (1S,2S)-2-((6-(4-((2-(2-chlorophenyl)ethyl)sulfonamido)-3-methylisoxazol-5-yl)-2-methylpyridin-3-yl)carbamoyl)cyclohexane-1-carboxylic acid]"
8,> 7.30,"Cc1nc(-c2onc(C)c2CNc2nccc(-c3ccsc3)n2)ccc1NC(=O)[C@H]1CCCC[C@@H]1C(=O)O [Compound 39, (1S,2S)-2-((2-methyl-6-(3-methyl-4-(((4-(thiophen-3-yl)pyrimidin-2-yl)amino)methyl)isoxazol-5-yl)pyridin-3-yl)carbamoyl)cyclohexane-1-carboxylic acid]"
9,6.60 to 7.30,"Cc1nc(-c2onc(C)c2Nc2cncc(C(C)C)n2)ccc1NC(=O)[C@H]1CCCC[C@@H]1C(=O)O [Compound 13, (1S,2S)-2-((6-(4-((6-isopropylpyrazin-2-yl)amino)-3-methylisoxazol-5-yl)-2-methylpyridin-3-yl)carbamoyl)cyclohexane-1-carboxylic acid]"
10,> 7.30,"Cc1nc(-c2onc(C)c2Nc2cncc(-c3ccccc3)n2)ccc1NC(=O)[C@H]1CCCC[C@@H]1C(=O)O [Compound 6, (1S,2S)-2-((2-methyl-6-(3-methyl-4-((6-phenylpyrazin-2-yl)amino)isoxazol-5-yl)pyridin-3-yl)carbamoyl)cyclohexane-1-carboxylic acid]"
11,> 7.30,"Cc1noc(-c2ccc(OC[C@H]3CCCC[C@@H]3C(=O)O)cn2)c1Nc1cncc(OCC(F)(F)F)n1 [Compound 49, (1S,2S)-2-(((6-(3-methyl-4-((6-(2,2,2-trifluoroethoxy)pyrazin-2-yl)amino)isoxazol-5-yl)pyridin-3-yl)oxy)methyl)cyclohexane-1-carboxylic acid]"
12,> 7.30,"Cc1noc(-c2ccc(OCC3CCCCC3C(=O)O)cn2)c1NC(=O)O[C@H](C)c1ccccc1Cl (single isomer, unassigned) [Compound 81]"
13,> 7.30,Cc1nc(-c2nnn(C)c2NC(=O)O[C@H](C)c2ccccc2Cl)ccc1OC[C@H]1CCCC[C@@H]1C(=O)O [Compound 69]
14,> 7.30,"Cc1nc(-c2onc(C)c2Nc2cncc(C3CCCC3)n2)ccc1NC(=O)[C@H]1CCCC[C@@H]1C(=O)O [Compound 11, (1S,2S)-2-((6-(4-((6-cyclopentylpyrazin-2-yl)amino)-3-methylisoxazol-5-yl)-2-methylpyridin-3-yl)carbamoyl)cyclohexane-1-carboxylic acid]"
15,6.60 to 7.30,"Cc1nc(-c2onc(C)c2COC(=O)N(C)C2CCCC2)ccc1NC(=O)[C@H]1CCCC[C@@H]1C(=O)O [Compound 45, (1S,2S)-2-((6-(4-(((cyclopentyl(methyl)carbamoyl)oxy)methyl)-3-methylisoxazol-5-yl)-2-methylpyridin-3-yl)carbamoyl)cyclohexane-1-carboxylic acid]"
16,> 7.30,"Cc1nc(-c2nnn(C)c2CNc2nccc(C3CCCCC3)n2)ccc1NC(=O)[C@H]1CCCC[C@@H]1C(=O)O [Compound 44, (1S,2S)-2-((6-(5-(((4-cyclohexylpyrimidin-2-yl)amino)methyl)-1-methyl-1H-1,2,3-triazol-4-yl)-2-methylpyridin-3-yl)carbamoyl)cyclohexane-1-carboxylic acid]"
17,6.22 to 6.60,"Cc1nc(-c2onc(C)c2NS(=O)(=O)c2ccccc2)ccc1OC[C@H]1CCCC[C@@H]1C(=O)O [Compound 56, (1S,2S)-2-(((2-methyl-6-(3-methyl-4-(phenylsulfonamido)isoxazol-5-yl)pyridin-3-yl)oxy)methyl)cyclohexane-1-carboxylic acid]"
18,6.60 to 7.30,"Cc1nc(-c2onc(C)c2Nc2cncc(-c3cccnc3)n2)ccc1NC(=O)[C@H]1CCCC[C@@H]1C(=O)O [Compound 7, (1S,2S)-2-((2-methyl-6-(3-methyl-4-((6-(pyridin-3-yl)pyrazin-2-yl)amino)isoxazol-5-yl)pyridin-3-yl)carbamoyl)cyclohexane-1-carboxylic acid]"
19,6.60 to 7.30,"Cc1nc(-c2onc(C)c2NS(=O)(=O)CCc2ccccc2F)ccc1NC(=O)[C@H]1CCCC[C@@H]1C(=O)O [Compound 24, (1S,2S)-2-((6-(4-((2-(2-fluorophenyl)ethyl)sulfonamido)-3-methylisoxazol-5-yl)-2-methylpyridin-3-yl)carbamoyl)cyclohexane-1-carboxylic acid]"
20,6.60 to 7.30,"Cc1noc(-c2ccc(OC[C@H]3CCCC[C@@H]3C(=O)O)cc2)c1NC(=O)O[C@H](C)c1cccnc1 [Compound 59, (1S,2S)-2-((4-(3-methyl-4-((((R)-1-(pyridin-3-yl)ethoxy)carbonyl)amino)isoxazol-5-yl)phenoxy)methyl)cyclohexane-1-carboxylic acid]"
21,6.60 to 7.30,"Cc1nc(-c2cnn(C)c2CNc2nccc(OC(C)C)n2)ccc1NC(=O)[C@H]1CCCC[C@@H]1C(=O)O [Compound 17, (1S,2S)-2-((6-(5-(((4-isopropoxypyrimidin-2-yl)amino)methyl)-1-methyl-1H-pyrazol-4-yl)-2-methylpyridin-3-yl)carbamoyl)cyclohexane-1-carboxylic acid]"
22,6.60 to 7.30,"CC(C)Oc1cncc(Nc2c(-c3ccc(NC(=O)C4CCCCC4C(=O)O)cc3)nnn2C)n1 (racemic) [Compound 43, 2-((4-(5-((6-isopropoxypyrazin-2-yl)amino)-1-methyl-1H-1,2,3-triazol-4-yl)phenyl)carbamoyl)cyclohexane-1-carboxylic acid]"
23,> 7.30,"Cc1nc(-c2cnn(C)c2NC(=O)O[C@H](C)c2ccccc2Cl)ccc1OC[C@H]1CCCC[C@@H]1C(=O)O [Compound 58, (1S,2S)-2-(((6-(5-((((R)-1-(2-chlorophenyl)ethoxy)carbonyl)amino)-1-methyl-1H-pyrazol-4-yl)-2-methylpyridin-3-yl)oxy)methyl)cyclohexane-1-carboxylic acid]"
24,> 7.30,"Cc1noc(-c2ccc(NC(=O)C3CCCCC3C(=O)O)cc2)c1Nc1cncc(OC(C)C)n1 (racemic) [Compound 16, 2-((4-(4-((6-isopropoxypyrazin-2-yl)amino)-3-methylisoxazol-5-yl)phenyl)carbamoyl)cyclohexane-1-carboxylic acid]"
25,> 7.30,"Cc1nc(-c2onc(C)c2CNc2nccc(-c3ccco3)n2)ccc1NC(=O)[C@H]1CCCC[C@@H]1C(=O)O [Compound 41, (1S,2S)-2-((6-(4-(((4-(furan-2-yl)pyrimidin-2-yl)amino)methyl)-3-methylisoxazol-5-yl)-2-methylpyridin-3-yl)carbamoyl)cyclohexane-1-carboxylic acid]"
26,> 7.30,"Cc1nc(-c2onc(C)c2NS(=O)(=O)CCOc2ccc(F)cc2)ccc1OC[C@H]1CCCC[C@@H]1C(=O)O [Compound 55, (1S,2S)-2-(((6-(4-((2-(4-fluorophenoxy)ethyl)sulfonamido)-3-methylisoxazol-5-yl)-2-methylpyridin-3-yl)oxy)methyl)cyclohexane-1-carboxylic acid]"
